Where two headings read alike, the source gives them in different places.
How the values were obtained:
HBV [1] = test: HBV replication intermediates and viral proteins in HepG2.2.15 cells (Northern, Western, particle gel, Southern); type: cell-based, hepatitis B virus; conditions: HepG2.2.15, 6 days; ETV, GLS-4, cmpdA 1 μM; AB-452 70 nM
Protocol: Total cellular RNA was extracted from HepG2.2.15 or HepAD38 cells treated with or without antiviral compounds using TRIzol reagent according to the manufacturer's directions (Thermo Fisher Scientific, Waltham, MA). Northern blotting was performed as described previously ([1]). Briefly, total RNA was separated in a 1.5% agarose gel and transferred onto an Amersham Hybond-XL membrane (product no. GERPN303S; GE Healthcare, IL, USA). Membranes were probed with an [α-^32P]UTP (PerkinElmer, CT, USA)-labeled minus strand-specific full-length HBV riboprobe (3.2 kb) transcribed from plasmid pSP65_HBV(+) DNA. Membranes were exposed to a phosphoimager screen, and the hybridization signals were quantified using Image Studio software (Li-Cor Biosciences, NE, USA).
Total intracellular viral core-associated DNA was extracted as described previously ([1]) and analyzed by Southern blotting hybridization with an [α-^32P]UTP-labeled full-length HBV riboprobe (3.2 kb) that specifically hybridized to minus strand of viral DNA. Membranes were exposed to a phosphoimager screen, and the hybridization signals were quantified using Image Studio software.
HepG2.2.15 or HepAD38 cells cultured in a 12-well plate were lysed with 200 μl Laemmli sample buffer (Bio-Rad, PA, USA) supplemented with 2.5% 2-mercaptoethanol (Sigma-Aldrich, MO, USA). […]

recombinant human PAPD5 = target: T1, recombinant human PAPD5 (Homo sapiens, UniProt Q8NDF8); test: PAPD5 ATP depletion assay; type: biochemical; conditions: truncated recombinant human PAPD5, ATP depletion
T1 construct: PAPD5 (amino acids 186 to 518; XM_011523275); 10xHis (N); Flag (N); TEV cleavage site (N); host or cells: E. coli BL21(DE3), vector pET-24a(+)
T1 sequence (Q8NDF8 106-438 limits assumed): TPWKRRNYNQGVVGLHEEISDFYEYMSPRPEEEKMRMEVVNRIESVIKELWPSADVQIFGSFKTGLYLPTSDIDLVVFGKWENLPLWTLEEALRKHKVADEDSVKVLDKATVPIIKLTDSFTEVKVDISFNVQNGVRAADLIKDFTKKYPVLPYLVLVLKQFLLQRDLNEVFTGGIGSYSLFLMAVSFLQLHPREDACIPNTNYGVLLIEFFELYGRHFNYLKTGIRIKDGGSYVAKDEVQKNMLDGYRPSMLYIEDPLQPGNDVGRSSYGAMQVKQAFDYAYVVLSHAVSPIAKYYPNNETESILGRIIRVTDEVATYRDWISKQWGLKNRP
Protocol: (§1) Molecular cloning, expression, and purification of the recombinant human PAPD5 and PAPD7 proteins were performed at Xtal BioStructures (MA, USA). PAPD5 (amino acids 186 to 518; GenBank accession no. XM_011523275) and PAPD7 (amino acids 226 to 558; GenBank accession no. NM_006999.6) genes comprising of nucleotidyltransferase and PAP-associated domains were codon optimized, synthesized, and inserted in the expression vector pET-24a(+) for E. coli expression with 10×His-Flag-tobacco etch virus (TEV) tags at the N terminus. The pET-24a(+) constructs were transformed into E. coli-competent cells BL21(DE3). […] Expression of protein was induced for 16 h with 0.2 mM IPTG (isopropyl-β-D-thiogalactopyranoside) at 18°C. […] Roche). Cell suspension was sonicated 8 × 20 s at 27 to 30 W (power level, 3.5 to 4.0) with 40-s breaks between each pulse. Lysate was cleared by centrifugation in a 50-ml conical tube at 20,000 × g for 30 min (Fiberlite F13-14 × 50cy rotor in a Sorvall RC6 centrifuge). Supernatant was incubated with Ni-charged MagBeads (GenScript; catalog no. […] Bound proteins were washed with 50 ml binding buffer and eluted in elution buffer containing a gradient of imidazole ranging from 5 to 500 mM. Peak fractions were pooled and stored in 50% glycerol at -80°C. Reactions were carried out in duplicate in 96-well low-profile, skirted, white plates (catalog no. AB0800WL; […] The reaction mixtures were incubated at room temperature for 3 h, and ATP depletion was monitored by using Kinase-Glo luminescent kinase kit following the manufacturer's instructions (catalog no. V6712; Promega, WI, USA).

HBV [2] = test: Antiviral assay in HepG2.2.15 cells (HBsAg/HBeAg CLIA, secreted HBV DNA qPCR); type: cell-based, hepatitis B virus
recombinant human PAPD7 = target: T2, recombinant human PAPD7 (Homo sapiens, UniProt Q5XG87); test: PAPD7 ATP depletion assay; type: biochemical
T2 construct: PAPD7 (amino acids 226 to 558; NM_006999.6); 10xHis (N); Flag (N); TEV cleavage site (N); host or cells: E. coli BL21(DE3), vector pET-24a(+)
T2 sequence (Q5XG87 226-558): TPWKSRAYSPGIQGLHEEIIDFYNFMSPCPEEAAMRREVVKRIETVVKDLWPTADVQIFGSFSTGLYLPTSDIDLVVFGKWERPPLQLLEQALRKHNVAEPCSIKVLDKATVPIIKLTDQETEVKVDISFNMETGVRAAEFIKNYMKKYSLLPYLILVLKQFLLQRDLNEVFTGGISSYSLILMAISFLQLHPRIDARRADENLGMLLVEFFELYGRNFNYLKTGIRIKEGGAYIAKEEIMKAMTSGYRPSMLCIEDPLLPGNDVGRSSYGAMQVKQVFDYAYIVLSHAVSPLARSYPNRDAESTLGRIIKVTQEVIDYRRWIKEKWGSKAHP
Protocol: as §1

HBV PRE = HBV PRE cis-element reporter plasmids (HBsAg or Gluc) transfected in Huh-7 cells; conditions: Hepatitis B virus
HBV [3] = test: HBsAg inhibition in PLC/PRF/5 cells; type: cell-based; conditions: Hepatitis B virus
Protocol: AB-452 and RG7834 both belong to the dihydroquinolizinones chemical class. The antiviral activities of AB-452 and its diastereomer ARB-169451 were evaluated using multiple in vitro HBV replication models, including HepG2.2.15 cells (which constitutively express HBV through the integrated viral genome), PLC/PRF/5 cells (a patient-derived hepatocellular carcinoma cell line only expressing HBsAg), and HBV-infected HepG2-NTCP cells or primary human hepatocytes (PHHs) in which viral replication was dependent on cccDNA transcription (Table 1).
HepG2.2.15, HepAD38, and PLC/PRF/5 cells were cultured in Dulbecco’s modified Eagle medium (DMEM)/F12 medium (Corning, NY, USA), supplemented with 10% fetal bovine serum (Gemini, CA, USA), 100 U/ml penicillin, and 100 μg/ml streptomycin. Huh-7 cells (Creative Bioarray, NY, USA) were cultured in RPMI 1640 medium (Basel, Switzerland) containing 10% fetal bovine serum, 100 U/ml penicillin, and 100 μg/ml streptomycin. HepG2-hNTCP-C4 cells were cultured in DMEM medium (Gibco, MA, USA) containing 10% fetal bovine serum and 10 mM HEPES (Gibco).

PAPD5 = tested on: PAPD5; design: method as in PMID 31801065; conditions: read-out: PAPD5 IC50 previously reported; cited from earlier work
HBsAg = HBsAg inhibition in adenovirus-HBsAg-transduced HepG2-NTCP WT and KO clones; type: cell-based, hepatitis B virus; conditions: for EC50: HBsAg, read-out: Adeno infection EC50

For `C=C1[C@H](CO)[C@@H](O)C[C@@H]1n1cnc2c(=O)[nH]c(N)nc21` [ETV, entecavir, reference compound], which “Effect on HBV replication intermediates and viral proteins” value (HBV [1]) is on record?
The value was “strongly inhibited HBV DNA replication but did not reduce the production of intracellular HBV RNA, core protein levels, or capsid assembly”.

For `COCCCOc1cc2c(nc1OC)-c1cc(=O)c(C(=O)O)cn1[C@@H](C(C)C)C2` [ARB-169451], which IC50 (recombinant human PAPD5) is on record?
Its IC50 is 27000 nM.

What about the “fold weaker toward HBsAg inhibition than AB-452” value (HBV [2]) of the same compound?
The value was “more than 1,000 fold”.

What about the EC50 (HBV [2]; Hepatitis B virus, HepG2.2.15 cells, read-out: HBsAg EC50) of the same compound?
Its EC50 is 2230 nM.

And the IC50 (recombinant human PAPD7)?
The IC50 was > 50000 nM.

And the EC50 (HBV PRE; 120 h, read-out: EC50, Gluc_dHBx (Gluc activity))?
Its EC50 is > 100 nM.

What about the EC50 (HBV PRE; 120 h, read-out: EC50, H133_Gluc (Gluc activity)) of the same compound?
The EC50 was > 100 nM.

What about the EC50 (HBV PRE; Huh-7, 120 h, read-out: EC50, Gluc_rcSLα (Gluc activity)) of the same compound?
Its EC50 is > 100 nM.

What about the EC50 (HBV PRE; Huh-7, 120 h, read-out: EC50, H133 (HBsAg)) of the same compound?
The EC50 was > 100 nM.

And the EC50 (HBV PRE; Huh-7, 120 h, read-out: EC50, H133_dLa (HBsAg))?
Its EC50 is > 100 nM.

What about the EC50 (HBV PRE; Huh-7, 120 h, read-out: EC50, H133_dSLα (HBsAg)) of the same compound?
Its EC50 is > 100 nM.

What about the EC50 (HBV [3]) of the same compound?
The EC50 was > 100 nM.

For `COCCCOc1cc2c(cc1OC)-c1cc(=O)c(C(=O)O)cn1[C@H](C(C)C)C2` [RG7834, reference compound], which IC50 (recombinant human PAPD5) is on record?
The IC50 was 167 nM.

What about the IC50 (PAPD5) of the same compound?
The IC50 was 1.3 nM.

And the “Adeno infection FC vs WT” value (HBsAg; P5_KO (T3-4))?
The value was 10.7.

And the EC50 (HBsAg; P5_KO (T3-4))?
The EC50 was 126 ± 74.7 nM.

And the “Adeno infection FC vs WT” value (HBsAg; P5_KO (T3-15))?
Its value is 7.3.

What about the EC50 (HBsAg; P5_KO (T3-15)) of the same compound?
The EC50 was 85.7 ± 59.8 nM.

And the “Adeno infection FC vs WT” value (HBsAg; P7_KO (T2-8))?
The value was 2.0.

What about the EC50 (HBsAg; P7_KO (T2-8)) of the same compound?
Its EC50 is 23.7 ± 15.2 nM.

And the “Adeno infection FC vs WT” value (HBsAg; P7_KO (T2-22))?
Its value is 0.9.

And the EC50 (HBsAg; P7_KO (T2-22))?
The EC50 was 10.8 ± 2.1 nM.

What about the “Adeno infection FC vs WT” value (HBsAg; WT (parent)) of the same compound?
Its value is 1.

What about the EC50 (HBsAg; WT (parent) HepG2-NTCP) of the same compound?
The EC50 was 11.8 ± 9.6 nM.

What about the IC50 (recombinant human PAPD7) of the same compound?
Its IC50 is 1090 nM.

From paper PMC8387043, “Host Poly(A) Polymerases PAPD5 and PAPD7 Provide Two Layers of Protection That Ensure the Integrity and Stability of Hepatitis B Virus RNA” (Journal of Virology, 2021)
